According to patent US4169197A, “6-Deoxyneamines aminoglycoside compounds” (The Upjohn Company, priority 1978, dated 1979):
Converted amounts (≈) assume the structure as drawn. Like-named read-outs stand apart in the source and are kept apart here.

Assays:
Format in all cases: cell-based
E. coli UC 45 = assay: standard microplate test in BHI Agar; settings: Escherichia coli, UC45, 37°, 20 hours, Table III, read-out: Minimum Inhibitory Concentration
Protocol: (§1) The compounds VII, XI, XVβ, XVα and XVI were tested in a standard microplate test in BHI (Brain Heart Infusion) Agar at a concentration of 1 mg./ml. and dilutions thereof at 37° incubation temperature. The end points are read out 20 hours. BHI Agar is supplied by Difco Laboratories, Detroit, Mich.

K. pneumoniae UC 58 = assay: standard microplate test in BHI Agar; settings: Klebsiella pneumoniae
Protocol: as §1

P. mirabilis UC 6671 = assay: standard microplate test in BHI Agar; settings: Proteus mirabilis, UC6671, 20 h
Protocol: as §1

P. morganii UC 3186 = assay: standard microplate test in BHI Agar; settings: Morganella morganii
Protocol: as §1

P. rettgeri UC 339 = assay: standard microplate test in BHI Agar; settings: Providencia rettgeri
Protocol: as §1

P. vulgaris UC 93 [1] = assay: standard microplate test in BHI Agar; settings: Proteus vulgaris, UC93, 20 h
Protocol: as §1

Ps. aeruginosa UC 95 [2] = assay: standard microplate test in BHI Agar; settings: Pseudomonas aeruginosa
Protocol: as §1

S. aureus UC 76 = assay: standard microplate test in BHI Agar; settings: Staphylococcus aureus
Protocol: as §1

S. faecalis UC 694 = assay: standard microplate test in BHI Agar; settings: Enterococcus faecalis
Protocol: as §1

S. flexneri UC 143 = assay: standard microplate test in BHI Agar; settings: Shigella flexneri, UC143, 37°, 20 hours
Protocol: as §1

S. marcescens UC 131 = assay: standard microplate test in BHI Agar; settings: Serratia marcescens, UC131, 20 h
Protocol: as §1

S. pneumoniae I UC 41 = assay: standard microplate test in BHI Agar; settings: Streptococcus pneumoniae, UC41, 20 h
Protocol: as §1

S. pyogenes UC 152 = assay: standard microplate test in BHI Agar; settings: Streptococcus pyogenes
Protocol: as §1

S. schottmuelleri UC 126 [3] = assay: standard microplate test in BHI Agar; settings: 37°, 20 hours
Protocol: as §1

S. typhi UC 215 = assay: standard microplate test in BHI Agar; settings: Salmonella enterica, 20 h
Protocol: as §1

B. cereus UC 3145 = assay: standard disc plate assay, zones of inhibition; settings: Bacillus cereus, UC3145, 12.5 mm paper discs, Table I, read-out: Zones of Inhibition
Description: (§2) The compounds of formulas (V, VII, IX, XI, XIV, XVI, and XIX) are active as antibacterials and can be used in various environments to erradicate or control susceptible microorganisms. Tables I and II set forth the in vitro antibacterial test results for representative compounds of the present invention. The results were obtained with a standard disc plate assay using 12.5 mm paper discs.

B. subtilis UC 564 = assay: standard disc plate assay, zones of inhibition; settings: Bacillus subtilis, UC564, 12.5 mm paper discs, Table I, read-out: Zones of Inhibition
Description: as §2

E. coli UC 51 = assay: standard disc plate assay, zones of inhibition; settings: Escherichia coli, UC51, 12.5 mm paper discs, Table I, read-out: Zones of Inhibition
Description: as §2

K. pneumoniae UC 57 = assay: standard disc plate assay, zones of inhibition; settings: Klebsiella pneumoniae, UC57, 12.5 mm paper discs, Table I, read-out: Zones of Inhibition
Description: as §2

P. vulgaris UC 93 [4] = assay: standard disc plate assay, zones of inhibition; settings: Proteus vulgaris, UC93, 12.5 mm paper discs, Table I, read-out: Zones of Inhibition
Description: as §2

Ps. aeruginosa UC 95 [5] = assay: standard disc plate assay, zones of inhibition; settings: Pseudomonas aeruginosa, UC95; 1 mg/ml; 12.5 mm paper discs; Table I; read-out: Zones of Inhibition
Description: as §2

S. aureus UC 80 = assay: standard disc plate assay, zones of inhibition; settings: Staphylococcus aureus, UC80, 12.5 mm paper discs, Table I, read-out: Zones of Inhibition
Description: as §2

S. gallinarum UC 265 = assay: standard disc plate assay, zones of inhibition; settings: Salmonella enterica, 12.5 mm paper discs, Table I, read-out: Zones of Inhibition
Description: as §2

S. lutea UC 130 = assay: standard disc plate assay, zones of inhibition; settings: Micrococcus luteus, UC130; 1 mg/ml; 12.5 mm paper discs; Table I; read-out: Zones of Inhibition
Description: as §2

S. schottmuelleri UC 126 [6] = assay: standard disc plate assay, zones of inhibition; settings: 12.5 mm paper discs, Table I
Description: as §2

E. coli UC 311 = assay: standard microplate test in BHI Agar; settings: Escherichia coli, UC311, 20 h, read-out: Minimal Inhibitory Concentration
Protocol: as §1

[7] = read-out: Minimum Inhibitory Concentration
[8] = Table III, read-out: Minimum Inhibitory Concentration
[9] = read-out: Minimal Inhibitory Concentration
[10] = Table IV, read-out: Minimal Inhibitory Concentration

NC[C@H]1O[C@H](O[C@H]2[C@H](O)C[C@H](N)C[C@@H]2N)[C@H](N)[C@@H](O)[C@@H]1O [6-deoxyneamine (XI), 6-deoxyneamine]
MIC (E. coli UC 45): 31.2 µg/mL (≈ 102 µM)
MIC (K. pneumoniae UC 58; UC58, 20 h, read-out: Minimum Inhibitory Concentration): 7.8 µg/mL (≈ 25.5 µM)
MIC (P. mirabilis UC 6671; [7]): 62.5 µg/mL (≈ 204 µM)
MIC (P. morganii UC 3186; UC3186, 20 h, read-out: Minimum Inhibitory Concentration): 62.5 µg/mL (≈ 204 µM)
MIC (P. rettgeri UC 339; UC339, 20 h, read-out: Minimum Inhibitory Concentration): 250 µg/mL (≈ 816 µM)
MIC (P. vulgaris UC 93 [1]; [7]): 31.2 µg/mL (≈ 102 µM)
MIC (Ps. aeruginosa UC 95 [2]; UC95, 20 h, read-out: Minimum Inhibitory Concentration): > 500 µg/mL
MIC (S. aureus UC 76; UC76, BHI Agar, 37°, 20 hours, Table III, read-out: Minimum Inhibitory Concentration): 3.9 µg/mL (≈ 12.7 µM)
MIC (S. faecalis UC 694; UC694, 20 h, read-out: Minimum Inhibitory Concentration): > 500 µg/mL
MIC (S. flexneri UC 143; [8]): 62.5 µg/mL (≈ 204 µM)
MIC (S. marcescens UC 131; [7]): 250 µg/mL (≈ 816 µM)
MIC (S. pneumoniae I UC 41; [7]): 62.5 µg/mL (≈ 204 µM)
MIC (S. pyogenes UC 152; UC152, 20 h, read-out: Minimum Inhibitory Concentration): 15.6 µg/mL (≈ 50.9 µM)
MIC (S. schottmuelleri UC 126 [3]; [8]): 31.2 µg/mL (≈ 102 µM)
MIC (S. typhi UC 215; [7]): 31.2 µg/mL (≈ 102 µM)

NC[C@H]1O[C@H](O[C@@H]2[C@@H](N)C[C@@H](N)C[C@H]2O[C@@H]2O[C@H](CO)[C@@H](O)[C@H]2O)[C@H](N)[C@@H](O)[C@@H]1O [Compound XVβ, O-2,6-diamino-2,6-dideoxy-α-D-glucopyranosyl (1→4)-O-[β-D-ribofuranosyl(1→5)]-2,6-dideoxy-D-streptamine]
zone of inhibition at 100 µg/mL (B. cereus UC 3145; 0.1 mg/ml): 17 mm
zone of inhibition at 1000 µg/mL (B. cereus UC 3145; 1 mg/ml): 26 mm
zone of inhibition at 100 µg/mL (B. subtilis UC 564; 0.1 mg/ml): 31 mm
zone of inhibition at 1000 µg/mL (B. subtilis UC 564; 1 mg/ml): 39 mm
zone of inhibition at 100 µg/mL (E. coli UC 51; 0.1 mg/ml): 20 mm
zone of inhibition at 1000 µg/mL (E. coli UC 51; 1 mg/ml): 27 mm
zone of inhibition at 100 µg/mL (K. pneumoniae UC 57; 0.1 mg/ml): 28 mm
zone of inhibition at 1000 µg/mL (K. pneumoniae UC 57; 1 mg/ml): 36 mm
zone of inhibition at 100 µg/mL (P. vulgaris UC 93 [4]; 0.1 mg/ml): 18 mm
zone of inhibition at 1000 µg/mL (P. vulgaris UC 93 [4]; 1 mg/ml): 27 mm
zone of inhibition at 1000 µg/mL (Ps. aeruginosa UC 95 [5]): 15 mm
zone of inhibition at 100 µg/mL (S. aureus UC 80; 0.1 mg/ml): 19 mm
zone of inhibition at 1000 µg/mL (S. aureus UC 80; 1 mg/ml): 27 mm
zone of inhibition at 100 µg/mL (S. gallinarum UC 265; 0.1 mg/ml): 21 mm
zone of inhibition at 1000 µg/mL (S. gallinarum UC 265; 1 mg/ml): 29 mm
zone of inhibition at 1000 µg/mL (S. lutea UC 130): 19 mm
zone of inhibition at 100 µg/mL (S. schottmuelleri UC 126 [6]; 0.1 mg/ml): 16 mm
zone of inhibition at 1000 µg/mL (S. schottmuelleri UC 126 [6]; 1 mg/ml): 24 mm
MIC (E. coli UC 311): 31.2 µg/mL (≈ 71.2 µM)
MIC (K. pneumoniae UC 58; UC58, BHI Agar, 37°, 20 hours, Table IV, read-out: Minimal Inhibitory Concentration): 2 µg/mL (≈ 4.56 µM)
MIC (P. mirabilis UC 6671; [9]): 125 µg/mL (≈ 285 µM)
MIC (P. morganii UC 3186; UC3186, BHI Agar, 37°, 20 hours, Table IV, read-out: Minimal Inhibitory Concentration): 7.8 µg/mL (≈ 17.8 µM)
MIC (P. rettgeri UC 339; UC339, BHI Agar, 37°, 20 hours, Table IV, read-out: Minimal Inhibitory Concentration): > 500 µg/mL
MIC (P. vulgaris UC 93 [1]; [9]): 31.2 µg/mL (≈ 71.2 µM)
MIC (Ps. aeruginosa UC 95 [2]; UC95, BHI Agar, 37°, 20 hours, Table IV, read-out: Minimal Inhibitory Concentration): > 500 µg/mL
MIC (S. aureus UC 76; UC76, 20 h, read-out: Minimal Inhibitory Concentration): 31.2 µg/mL (≈ 71.2 µM)
MIC (S. faecalis UC 694; UC694, BHI Agar, 37°, 20 hours, Table IV, read-out: Minimal Inhibitory Concentration): 500 µg/mL (≈ 1140 µM)
MIC (S. flexneri UC 143; [10]): 31.2 µg/mL (≈ 71.2 µM)
MIC (S. marcescens UC 131; [9]): 62.5 µg/mL (≈ 143 µM)
MIC (S. pneumoniae I UC 41; [9]): 15.6 µg/mL (≈ 35.6 µM)
MIC (S. pyogenes UC 152; UC152, BHI Agar, 37°, 20 hours, Table IV, read-out: Minimal Inhibitory Concentration): 3.9 µg/mL (≈ 8.89 µM)
MIC (S. schottmuelleri UC 126 [3]; [10]): 7.8 µg/mL (≈ 17.8 µM)
MIC (S. typhi UC 215; [9]): 15.6 µg/mL (≈ 35.6 µM)
